In ChEMBL document CHEMBL3885861, “Open TG-GATES”:

Organism: Rattus norvegicus
Test: Open TG-GATES - Regimen: Single
Format: toxicity, organism-based, Sprague-Dawley
Parameters: regimen Single, gender Male, age 6 weeks
Settings: in vivo, po, 10 mg/kg, route gavage, dose level Middle; for APTT / Bas / Eos / Fbg / Hb / Ht / Lym / MCH / MCHC / MCV / Mono / Neu / PT / Plat / RBC / Ret / WBC: tissue Blood; for KIDNEY_L / KIDNEY_R / KIDNEY_TOTAL: tissue Kidney; for LIVER: tissue Liver; for A/G / ALP / ALT / AST / BUN / CRE / Ca / Cl / DBIL / GLC / IP / K / LDH / Na / PL / RALB / TBIL / TC / TG / TP / gamma-GTP: tissue Plasma

Nc1c2c(nc3ccccc13)CCCC2 [TACRINE]
TERMINAL_BW (3 h): 204.5 g
APTT (3 h): 22.1 s
Bas (3 h): 0%
Eos (3 h): 0.8%
Fbg (3 h): 297.8 mg/dL
Hb (3 h): 13.3 g/dL
Ht (3 h): 38.8%
Lym (3 h): 70%
MCH (3 h): 21.2 pg
MCHC (3 h): 34.4%
MCV (3 h): 61.5 fL
Mono (3 h): 2.2%
Neu (3 h): 26.8%
PT (3 h): 16.5 s
Plat (3 h): 123.9 x10_4/uL
RBC (3 h): 630.4 x10_4/ul
Ret (3 h): 8.5%
WBC (3 h): 68 x10_2/uL
KIDNEY_L (3 h): 0.9 g
KIDNEY_R (3 h): 0.9 g
KIDNEY_TOTAL (3 h): 1.8 g
LIVER (3 h): 9.4 g
A/G (3 h): 1.3
ALP (3 h): 1472.8 IU/L
ALT (3 h): 45 IU/L
AST (3 h): 90.4 IU/L
BUN (3 h): 11.8 mg/dL
CRE (3 h): 0.2 mg/dL
Ca (3 h): 10.6 mg/dL
Cl (3 h): 106.4 meq/L
DBIL (3 h): 0.006 mg/dL
GLC (3 h): 213.4 mg/dL
IP (3 h): 8.7 mg/dL
K (3 h): 3.7 meq/L
LDH (3 h): 205.8 IU/L
Na (3 h): 141.8 meq/L
PL (3 h): 140.4 mg/dL
RALB (3 h): 3.2 g/dL
TBIL (3 h): 0.03 mg/dL
TC (3 h): 74.6 mg/dL
TG (3 h): 66.6 mg/dL
TP (3 h): 5.8 g/dL
gamma-GTP (3 h): 1 IU/L
TERMINAL_BW (6 h): 199.6 g
APTT (6 h): 19.8 s
Bas (6 h): 0%
Eos (6 h): 0.6%
Fbg (6 h): 317.2 mg/dL
Hb (6 h): 13.6 g/dL
Ht (6 h): 39.5%
Lym (6 h): 75.4%
MCH (6 h): 21 pg
MCHC (6 h): 34.4%
MCV (6 h): 60.8 fL
Mono (6 h): 2%
Neu (6 h): 21.2%
PT (6 h): 15.6 s
Plat (6 h): 119.2 x10_4/uL
RBC (6 h): 649.6 x10_4/ul
Ret (6 h): 7.8%
WBC (6 h): 74.9 x10_2/uL
KIDNEY_L (6 h): 0.9 g
KIDNEY_R (6 h): 0.9 g
KIDNEY_TOTAL (6 h): 1.8 g
LIVER (6 h): 8.5 g
A/G (6 h): 1.3
ALP (6 h): 1669.4 IU/L
ALT (6 h): 41.8 IU/L
AST (6 h): 82.4 IU/L
BUN (6 h): 10.6 mg/dL
CRE (6 h): 0.2 mg/dL
Ca (6 h): 10.6 mg/dL
Cl (6 h): 107.4 meq/L
DBIL (6 h): 0.002 mg/dL
GLC (6 h): 201.2 mg/dL
IP (6 h): 8.8 mg/dL
K (6 h): 4.4 meq/L
LDH (6 h): 290.6 IU/L
Na (6 h): 141.8 meq/L
PL (6 h): 161 mg/dL
RALB (6 h): 3.1 g/dL
TBIL (6 h): 0.028 mg/dL
TC (6 h): 82.2 mg/dL
TG (6 h): 50.8 mg/dL
TP (6 h): 5.5 g/dL
gamma-GTP (6 h): 1 IU/L
TERMINAL_BW (9 h): 197 g
APTT (9 h): 21.5 s
Bas (9 h): 0%
Eos (9 h): 1%
Fbg (9 h): 312.4 mg/dL
Hb (9 h): 13.4 g/dL
Ht (9 h): 38.9%
Lym (9 h): 76.2%
MCH (9 h): 21.4 pg
MCHC (9 h): 34.5%
MCV (9 h): 61.9 fL
Mono (9 h): 2.2%
Neu (9 h): 20%
PT (9 h): 15.9 s
Plat (9 h): 119.1 x10_4/uL
RBC (9 h): 628.6 x10_4/ul
Ret (9 h): 7.5%
WBC (9 h): 74.6 x10_2/uL
KIDNEY_L (9 h): 0.9 g
KIDNEY_R (9 h): 0.9 g
KIDNEY_TOTAL (9 h): 1.8 g
LIVER (9 h): 8.3 g
A/G (9 h): 1.3
ALP (9 h): 1332.6 IU/L
ALT (9 h): 42.6 IU/L
AST (9 h): 86.8 IU/L
BUN (9 h): 11.8 mg/dL
CRE (9 h): 0.1 mg/dL
Ca (9 h): 10.7 mg/dL
Cl (9 h): 107.4 meq/L
DBIL (9 h): 0.004 mg/dL
GLC (9 h): 183.8 mg/dL
IP (9 h): 9.7 mg/dL
K (9 h): 4.2 meq/L
LDH (9 h): 186.8 IU/L
Na (9 h): 142.2 meq/L
PL (9 h): 137.8 mg/dL
RALB (9 h): 3.1 g/dL
TBIL (9 h): 0.026 mg/dL
TC (9 h): 77 mg/dL
TG (9 h): 43.6 mg/dL
TP (9 h): 5.5 g/dL
gamma-GTP (9 h): 1 IU/L
TERMINAL_BW (24 h): 217.1 g
APTT (24 h): 21.1 s
Bas (24 h): 0%
Eos (24 h): 1%
Fbg (24 h): 305 mg/dL
Hb (24 h): 13.5 g/dL
Ht (24 h): 39.3%
Lym (24 h): 79%
MCH (24 h): 21.2 pg
MCHC (24 h): 34.4%
MCV (24 h): 61.6 fL
Mono (24 h): 3%
Neu (24 h): 15.8%
PT (24 h): 15.9 s
Plat (24 h): 116.9 x10_4/uL
RBC (24 h): 638 x10_4/ul
Ret (24 h): 7.4%
WBC (24 h): 98.6 x10_2/uL
KIDNEY_L (24 h): 1 g
KIDNEY_R (24 h): 1 g
KIDNEY_TOTAL (24 h): 2 g
LIVER (24 h): 9.7 g
A/G (24 h): 1.3
ALP (24 h): 1669.4 IU/L
ALT (24 h): 40.4 IU/L
AST (24 h): 77.2 IU/L
BUN (24 h): 17 mg/dL
CRE (24 h): 0.2 mg/dL
Ca (24 h): 11 mg/dL
Cl (24 h): 106 meq/L
DBIL (24 h): 0.004 mg/dL
GLC (24 h): 183 mg/dL
IP (24 h): 7.9 mg/dL
K (24 h): 4.3 meq/L
LDH (24 h): 229 IU/L
Na (24 h): 141.4 meq/L
PL (24 h): 161.6 mg/dL
RALB (24 h): 3.1 g/dL
TBIL (24 h): 0.022 mg/dL
TC (24 h): 81 mg/dL
TG (24 h): 97 mg/dL
TP (24 h): 5.5 g/dL
gamma-GTP (24 h): 1 IU/L
